Among the data in US11873291B2, “Quinoline cGAS antagonist compounds” (ImmuneSensor Therapeutics, Inc., priority 2020, dated 2024) are IC50 values, retold here.

In the assay the target is T1, recombinant human cGAS (aa147-522) (Homo sapiens, UniProt Q8N884).
T1 construct: recombinant human cGAS (aa147-522); His6-SUMO (cleaved yes); made in house; host or cells: E. coli BL21/pLys
As to the kind of experiment: In vitro inhibition assay of cGAS activity (ATP consumption, KinaseGlo Max). Format: biochemical. The note with it: Table 2, read-out: cGAS Inhibition Results IC50. The method, boiled down: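 De-tagged recombinant human cGAS (aa147-522, 1.5 μg/mL) was incubated 20 min at 37 °C with herring testis DNA, 6.6 μM ATP and 0.1 mM GTP in Tris pH 7.5/MgCl2 buffer plus serial compound dilutions. Remaining ATP was read by KinaseGlo Max luminescence, and IC50 was fitted from % ATP consumption versus log concentration.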

Molecules are shown by their SMILES.

T1 sequence (Q8N884 147-522): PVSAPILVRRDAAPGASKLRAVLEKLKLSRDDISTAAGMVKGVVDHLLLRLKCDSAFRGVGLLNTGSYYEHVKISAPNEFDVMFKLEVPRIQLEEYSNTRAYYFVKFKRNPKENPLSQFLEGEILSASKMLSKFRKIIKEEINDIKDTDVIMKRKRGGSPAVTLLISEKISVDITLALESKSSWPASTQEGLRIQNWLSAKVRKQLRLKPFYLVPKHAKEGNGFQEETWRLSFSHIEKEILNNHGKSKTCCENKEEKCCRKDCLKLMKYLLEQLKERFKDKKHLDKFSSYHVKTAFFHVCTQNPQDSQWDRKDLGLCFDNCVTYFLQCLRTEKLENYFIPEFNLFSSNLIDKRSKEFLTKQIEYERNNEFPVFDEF

By IC50 is commonly meant the midpoint of a concentration-inhibition curve. Consider `NS(=O)(=O)CCNc1cc(-c2cn[nH]c2)c2c(Cl)cc(Cl)cc2n1` [I-263], for which the IC50 is > 30 µM.

As to `NS(=O)(=O)CCNc1cc(-c2cn[nH]c2)c2cc(Cl)cc(Cl)c2n1` [I-264], the IC50 was < 2 µM.

With `NS(=O)(=O)CCNc1cc(-c2cn[nH]c2)c2cc(C(F)(F)F)ccc2n1` [I-265], the IC50 was > 30 µM.

Turning to `Cc1ccc2c(-c3cn[nH]c3)cc(NCCS(N)(=O)=O)nc2c1` [I-266], the IC50 was > 30 µM.

Consider `Cc1cccc2nc(NCCS(N)(=O)=O)cc(-c3cn[nH]c3)c12` [I-267], for which the IC50 was > 30 µM.

As for `CC(C)(C)c1ccc2c(-c3cn[nH]c3)cc(NCCS(N)(=O)=O)nc2c1` [I-268], the IC50 was > 30 µM.

With `CC(C)c1ccc2c(-c3cn[nH]c3)cc(NCCS(N)(=O)=O)nc2c1` [I-269], the IC50 was > 30 µM.

For `O=C(O)CCc1cc(-c2cn[nH]c2)c2ccc(Cl)c(Cl)c2n1` [I-270, 3-(7,8-dichloro-4-(1H-pyrazol-4-yl)quinolin-2-yl)propanoic acid], the IC50 is < 2 µM.

As to `OCCCc1cc(-c2cn[nH]c2)c2ccc(Cl)c(Cl)c2n1` [I-271, 3-(7,8-dichloro-4-(1H-pyrazol-4-yl)quinolin-2-yl)propan-1-ol], the IC50 is 2 to 30 µM.

As to `O=C1NC(=O)C(CCCc2cc(-c3cn[nH]c3)c3ccc(Cl)c(Cl)c3n2)S1` (stereo not drawn) [I-272, 5-(3-(7,8-dichloro-4-(1H-pyrazol-4-yl)quinolin-2-yl)propyl)thiazolidine-2,4-dione], the IC50 lay in the range of 2 to 30 µM.

As for `O=C(O)C1CCC=C(c2cc(-c3cn[nH]c3)c3ccc(Cl)c(Cl)c3n2)C1` (stereo not drawn) [I-273, 3-(7,8-dichloro-4-(1H-pyrazol-4-yl)quinolin-2-yl)cyclohex-3-ene-1-carboxylic acid], the IC50 fell in the range of 2 to 30 µM.

For the molecule `O=C1NC(=O)/C(=C\CCc2cc(-c3cn[nH]c3)c3ccc(Cl)c(Cl)c3n2)S1` [I-274, (E)-5-(3-(7,8-Dichloro-4-(1H-pyrazol-4-yl)quinolin-2-yl)propylidene)thiazolidine-2,4-dione], the IC50 was 2 to 30 µM.

Turning to `Fc1ccc(Cc2cc(-n3ccnc3)c3ccc(Br)cc3n2)cc1` [I-275], the IC50 was > 30 µM.

Take `O=C1NC(=O)/C(=C\c2cc(-n3ccnc3)c3ccc(Cl)c(Cl)c3n2)S1` [I-276, (E)-5-((7,8-dichloro-4-(1H-imidazol-1-yl)quinolin-2-yl)methylene)thiazolidine-2,4-dione]: the IC50 was < 2 µM.

As to `Clc1ccc2c(-n3ccnc3)cc(OCc3ccccc3)nc2c1` [I-277, 2-(benzyloxy)-7-chloro-4-(1H-imidazol-1-yl)quinoline], the IC50 is 2 to 30 µM.

With `Clc1ccc2c(-n3ccnc3)cc(Oc3ccccc3)nc2c1` [I-278], the IC50 lay in the range of 2 to 30 µM.

Take `Clc1ccc2c(-n3ccnc3)cc(OCCN3CCOCC3)nc2c1` [I-279]: the IC50 is > 30 µM.

Take `CCOc1cc(-n2ccnc2)c2ccc(Cl)cc2n1` [I-280]: the IC50 is > 30 µM.

Regarding `O=C(O)c1cccc(COc2cc(-n3ccnc3)c3ccc(Cl)cc3n2)c1` [I-281], the IC50 lay in the range of 2 to 30 µM.

As to `O=C(O)c1cccc(Oc2cc(-n3ccnc3)c3ccc(Cl)cc3n2)c1` [I-282], the IC50 lay in the range of 2 to 30 µM.

For `O=C(O)c1ccccc1Oc1cc(-n2ccnc2)c2ccc(Cl)cc2n1` [I-283], the IC50 is > 30 µM.

For `Clc1ccc2c(-n3ccnc3)cc(OCCCN3CCOCC3)nc2c1` [I-284], the IC50 was > 30 µM.

Take `C[C@H](Nc1cc(-c2cn[nH]c2)nc2c(Cl)c(Cl)ccc12)C(=O)O` [I-285]: the IC50 was < 2 µM.

As for `C[C@@H](Nc1cc(-c2cn[nH]c2)nc2c(Cl)c(Cl)ccc12)C(=O)O` [I-286], the IC50 is < 2 µM.

For the molecule `O=C(O)CNc1cc(-c2cn[nH]c2)nc2c(Cl)cc(Cl)cc12` [I-288], the IC50 was < 2 µM.

`OCCNc1cc(-c2cn[nH]c2)nc2c(Cl)c(Cl)ccc12` [I-289, 2-((7,8-dichloro-2-(1H-pyrazol-4-yl)quinolin-4-yl)amino)ethan-1-ol]: the IC50 was in the range of 2 to 30 µM.

As to `C[C@@H](Nc1cc(-c2cn[nH]c2)nc2c(Cl)c(Cl)ccc12)C(=O)OC(C)(C)C` [I-290], the IC50 fell in the range of 2 to 30 µM.
